Experimental data published in the Kinase Knowledgebase extract (Sharma et al. 2016).

Molecular target: CDK2 (human) (UniProt P24941)
Assay: Enzyme Assay
Settings: concentration not given here

SMILES | inhibition [%]
Nc1nc(NC2CCN(C(=O)Cc3cccc(Cl)c3)CC2)sc1C(=O)c1c(F)cccc1F | 62
CCC(C)C(C(=O)N1CCC(Nc2nc(N)c(C(=O)c3c(F)cccc3F)s2)CC1)c1ccccc1 (centres undefined) | 49
CC(C)c1cc(C(C)C)c(S(=O)(=O)N2CCC(Nc3nc(N)c(C(=O)c4c(F)cccc4F)s3)CC2)c(C(C)C)c1 | -17
Nc1nc(NC2CCN(C(=O)c3ccc4[nH]nnc4c3)CC2)sc1C(=O)c1c(F)cccc1F | 49
CC(C)(C)c1ccc(CC(=O)N2CCC(Nc3nc(N)c(C(=O)c4c(F)cccc4F)s3)CC2)cc1 | 55
Nc1nc(NC2CCN(C(=O)c3cnccc3C(F)(F)F)CC2)sc1C(=O)c1c(F)cccc1F | 18
CCOc1cccc(/C=C/C(=O)N2CCC(Nc3nc(N)c(C(=O)c4c(F)cccc4F)s3)CC2)c1 | 50
Nc1nc(NC2CCN(C(=O)c3cc(F)cc(F)c3)CC2)sc1C(=O)c1c(F)cccc1F | 80
Nc1nc(NC2CCN(C(=O)/C=C/c3ccncc3)CC2)sc1C(=O)c1c(F)cccc1F | 80
Cc1ccnc(SCC(=O)N2CCC(Nc3nc(N)c(C(=O)c4c(F)cccc4F)s3)CC2)n1 | 86
Cc1c(S(=O)(=O)c2ccc(Cl)cc2)csc1C(=O)N1CCC(Nc2nc(N)c(C(=O)c3c(F)cccc3F)s2)CC1 | -7
CS(=O)(=O)c1ccccc1S(=O)(=O)N1CCC(Nc2nc(N)c(C(=O)c3c(F)cccc3F)s2)CC1 | -5
Cn1c(C(=O)N2CCC(Nc3nc(N)c(C(=O)c4c(F)cccc4F)s3)CC2)cc2ccccc21 | 61
Cc1cccc(/C=C/C(=O)N2CCC(Nc3nc(N)c(C(=O)c4c(F)cccc4F)s3)CC2)c1 | 50
Nc1nc(NC2CCN(C(=O)Cc3ccccc3O)CC2)sc1C(=O)c1c(F)cccc1F | 48
CCOc1ccccc1/C=C/C(=O)N1CCC(Nc2nc(N)c(C(=O)c3c(F)cccc3F)s2)CC1 | 80
Nc1nc(NC2CCN(C(=O)C(CO)c3ccccc3)CC2)sc1C(=O)c1c(F)cccc1F (centres undefined) | 57
Nc1nc(NC2CCN(C(=O)[C@H](O)Cc3ccccc3)CC2)sc1C(=O)c1c(F)cccc1F | 42
Cc1ccc(C)c(CCCC(=O)N2CCC(Nc3nc(N)c(C(=O)c4c(F)cccc4F)s3)CC2)c1 | 41
Nc1cccc(CC(=O)N2CCC(Nc3nc(N)c(C(=O)c4c(F)cccc4F)s3)CC2)c1 | 61
Nc1nc(NC2CCN(C(=O)c3ccnc4ccccc34)CC2)sc1C(=O)c1c(F)cccc1F | 10

SMILES | inhibition [%]
N#C/C(=C\c1cccc(O)c1)C(=O)N1CCC(Nc2nc(N)c(C(=O)c3c(F)cccc3F)s2)CC1 | 84
CC(=O)Nc1cc(C(=O)N2CCC(Nc3nc(N)c(C(=O)c4c(F)cccc4F)s3)CC2)ccc1C | 64
Nc1nc(NC2CCN(C(=O)c3cnnc4ccccc34)CC2)sc1C(=O)c1c(F)cccc1F | 28
Nc1nc(NC2CCN(C(=O)C(O)c3ccccc3Cl)CC2)sc1C(=O)c1c(F)cccc1F (centres undefined) | 51
Nc1nc(NC2CCN(C(=O)CCCN3C(=O)C=CC3=O)CC2)sc1C(=O)c1c(F)cccc1F | 43
Nc1ccc(C(=O)NCC(=O)N2CCC(Nc3nc(N)c(C(=O)c4c(F)cccc4F)s3)CC2)cc1 | 65
Cc1ccc(CCC(=O)N2CCC(Nc3nc(N)c(C(=O)c4c(F)cccc4F)s3)CC2)cc1 | 36
Nc1nc(NC2CCN(C(=O)c3ccc4c(c3)C(=O)OC4=O)CC2)sc1C(=O)c1c(F)cccc1F | 53
Cc1cc(F)ccc1OCC(=O)N1CCC(Nc2nc(N)c(C(=O)c3c(F)cccc3F)s2)CC1 | 80
Nc1nc(NC2CCN(C(=O)c3ccc(CO)cc3)CC2)sc1C(=O)c1c(F)cccc1F | 47
Nc1nc(NC2CCN(C(=O)c3cc(F)c(F)c(F)c3)CC2)sc1C(=O)c1c(F)cccc1F | 65
Nc1nc(NC2CCN(C(=O)C(O)c3cc(F)ccc3F)CC2)sc1C(=O)c1c(F)cccc1F (centres undefined) | 57
CC(=O)O[C@@H](C(=O)N1CCC(Nc2nc(N)c(C(=O)c3c(F)cccc3F)s2)CC1)c1ccccc1 | 25
CC1(C)C2CC[C@]1(CS(=O)(=O)N1CCC(Nc3nc(N)c(C(=O)c4c(F)cccc4F)s3)CC1)C(=O)C2 | -1
CO[C@@](C(=O)N1CCC(Nc2nc(N)c(C(=O)c3c(F)cccc3F)s2)CC1)(c1ccccc1)C(F)(F)F | -6
Nc1nc(NC2CCN(C(=O)/C=C/c3ccccc3Cl)CC2)sc1C(=O)c1c(F)cccc1F | 83
Nc1nc(NC2CCN(C(=O)c3ccc4ccccc4n3)CC2)sc1C(=O)c1c(F)cccc1F | 9
Nc1nc(NC2CCN(C(=O)Cc3ccc(O)c(F)c3)CC2)sc1C(=O)c1c(F)cccc1F | 59
CCCCc1ccc(C(=O)N2CCC(Nc3nc(N)c(C(=O)c4c(F)cccc4F)s3)CC2)nc1 | -45
Cc1cc(C(=O)N2CCC(Nc3nc(N)c(C(=O)c4c(F)cccc4F)s3)CC2)n(C(C)(C)C)n1 | 59
Nc1nc(NC2CCN(C(=O)CCc3ccc4c(c3)OCO4)CC2)sc1C(=O)c1c(F)cccc1F | 49

The remaining lines, values ahead:

inhibition [%] | SMILES
51 | Nc1nc(NC2CCN(C(=O)CC3=CCCCC3)CC2)sc1C(=O)c1c(F)cccc1F
39 | COc1c(C)cc(C(=O)N2CCC(Nc3nc(N)c(C(=O)c4c(F)cccc4F)s3)CC2)cc1C
38 | COCCOCCOCC(=O)N1CCC(Nc2nc(N)c(C(=O)c3c(F)cccc3F)s2)CC1
58 | COc1ccc(C(O)C(=O)N2CCC(Nc3nc(N)c(C(=O)c4c(F)cccc4F)s3)CC2)cc1 (centres undefined)
-5 | Nc1nc(NC2CCN(C(=O)CC3CCCCC3)CC2)sc1C(=O)c1c(F)cccc1F
80 | Nc1nc(NC2CCN(C(=O)Cc3ccccn3)CC2)sc1C(=O)c1c(F)cccc1F
-19 | CC(C)=CC(=O)N1CCC(Nc2nc(N)c(C(=O)c3c(F)cccc3F)s2)CC1
14 | CCCCC[C@H]1CC[C@H](C(=O)N2CCC(Nc3nc(N)c(C(=O)c4c(F)cccc4F)s3)CC2)CC1
65 | C[C@H]1CC[C@H](C(=O)N2CCC(Nc3nc(N)c(C(=O)c4c(F)cccc4F)s3)CC2)CC1
33 | COCCC(=O)N1CCC(Nc2nc(N)c(C(=O)c3c(F)cccc3F)s2)CC1
32 | CCC(C)(C)C(=O)N1CCC(Nc2nc(N)c(C(=O)c3c(F)cccc3F)s2)CC1
58 | COc1ccc(C(O)C(=O)N2CCC(Nc3nc(N)c(C(=O)c4c(F)cccc4F)s3)CC2)cc1O (centres undefined)
25 | CCC(C)(O)C(=O)N1CCC(Nc2nc(N)c(C(=O)c3c(F)cccc3F)s2)CC1 (centres undefined)
80 | Nc1nc(NC2CCN(C(=O)c3cccs3)CC2)sc1C(=O)c1c(F)cccc1F
68 | C=CCCC(=O)N1CCC(Nc2nc(N)c(C(=O)c3c(F)cccc3F)s2)CC1
59 | CC1CCC(C(=O)N2CCC(Nc3nc(N)c(C(=O)c4c(F)cccc4F)s3)CC2)CC1 (centres undefined)
59 | CCCCCCC(=O)N1CCC(Nc2nc(N)c(C(=O)c3c(F)cccc3F)s2)CC1
33 | CSc1ncccc1C(=O)N1CCC(Nc2nc(N)c(C(=O)c3c(F)cccc3F)s2)CC1
25 | Nc1nc(NC2CCN(C(=O)[C@H](O)C3CCCCC3)CC2)sc1C(=O)c1c(F)cccc1F
57 | Cc1ccc(OCC(=O)N2CCC(Nc3nc(N)c(C(=O)c4c(F)cccc4F)s3)CC2)cc1
45 | CS(=O)(=O)CC(=O)N1CCC(Nc2nc(N)c(C(=O)c3c(F)cccc3F)s2)CC1
27 | CC(C)CCC(=O)N1CCC(Nc2nc(N)c(C(=O)c3c(F)cccc3F)s2)CC1
54 | COC1CCC(C(=O)N2CCC(Nc3nc(N)c(C(=O)c4c(F)cccc4F)s3)CC2)CC1 (centres undefined)
15 | CCC(=O)C(=O)N1CCC(Nc2nc(N)c(C(=O)c3c(F)cccc3F)s2)CC1

inhibition [%] | SMILES
77 | C[C@](O)(C(=O)N1CCC(Nc2nc(N)c(C(=O)c3c(F)cccc3F)s2)CC1)c1ccccc1
72 | Cc1cnc(C(=O)N2CCC(Nc3nc(N)c(C(=O)c4c(F)cccc4F)s3)CC2)cn1
51 | COc1ccc(C(=O)N2CCC(Nc3nc(N)c(C(=O)c4c(F)cccc4F)s3)CC2)c(OC)n1
84 | CSCC(=O)N1CCC(Nc2nc(N)c(C(=O)c3c(F)cccc3F)s2)CC1
45 | Cc1cc(Cl)ccc1C(=O)N1CCC(Nc2nc(N)c(C(=O)c3c(F)cccc3F)s2)CC1
41 | CC(C)(CO)C(=O)N1CCC(Nc2nc(N)c(C(=O)c3c(F)cccc3F)s2)CC1
62 | CCOCC(=O)N1CCC(Nc2nc(N)c(C(=O)c3c(F)cccc3F)s2)CC1
56 | Nc1nc(NC2CCN(C(=O)c3ccc(F)c(F)c3)CC2)sc1C(=O)c1c(F)cccc1F
18 | COc1ccc(Cl)cc1C(=O)N1CCC(Nc2nc(N)c(C(=O)c3c(F)cccc3F)s2)CC1
20 | CC(=O)N1CSC[C@H]1C(=O)N1CCC(Nc2nc(N)c(C(=O)c3c(F)cccc3F)s2)CC1
50 | CC(C)(O)C(=O)N1CCC(Nc2nc(N)c(C(=O)c3c(F)cccc3F)s2)CC1
50 | CC(=O)CC(=O)C(=O)N1CCC(Nc2nc(N)c(C(=O)c3c(F)cccc3F)s2)CC1
-5 | CC1(C(=O)N2CCC(Nc3nc(N)c(C(=O)c4c(F)cccc4F)s3)CC2)CCCCC1
-12 | COC(=O)C(=O)N1CCC(Nc2nc(N)c(C(=O)c3c(F)cccc3F)s2)CC1
43 | Nc1nc(NC2CCN(C(=O)/C=C/c3cccs3)CC2)sc1C(=O)c1c(F)cccc1F
27 | CC(C)C(O)C(=O)N1CCC(Nc2nc(N)c(C(=O)c3c(F)cccc3F)s2)CC1 (centres undefined)
17 | CCC(O)(CC)C(=O)N1CCC(Nc2nc(N)c(C(=O)c3c(F)cccc3F)s2)CC1
79 | CC1(C)OC(=O)CC1C(=O)N1CCC(Nc2nc(N)c(C(=O)c3c(F)cccc3F)s2)CC1 (centres undefined)
59 | Nc1nc(NC2CCN(C(=O)COc3ccccc3)CC2)sc1C(=O)c1c(F)cccc1F
37 | Nc1nc(NC2CCN(C(=O)CC3Cc4ccccc4C3)CC2)sc1C(=O)c1c(F)cccc1F
57 | CCN(CC)CCC(=O)N1CCC(Nc2nc(N)c(C(=O)c3c(F)cccc3F)s2)CC1
41 | Cc1ccc(C2(C(=O)N3CCC(Nc4nc(N)c(C(=O)c5c(F)cccc5F)s4)CC3)CC2)cc1
42 | CCC[C@H]1CC[C@H](C(=O)N2CCC(Nc3nc(N)c(C(=O)c4c(F)cccc4F)s3)CC2)CC1
